Laboratory results published in the supplement of paper PMC11061612.

Columns and labels:
[1] = system: OCI-AML3 (Acute Myeloid Leukemia); experiment: combination Emax (second highest fraction inhibited in the dose matrix, 72 h); higher = more inhibition; extreme values may be limits of the assay
Outline: (§1)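 After 24 hours at 37°C and 5% CO2 in 1536-well plates, cells in DMEM/F12 or RPMI plus 10% FBS received two-drug dose matrices for 72 hours. Viability came from CellTiter-Glo 2.0 luminescence and was scaled as inhibition, anchored at 0 by vehicle wells and at 1 by blank wells. Combination Emax is taken as the second-highest inhibition in the matrix, and Bliss excess as the observed combination effect less EA + EB − EA·EB, with EA and EB the single-agent effects.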

SJSA-1 (Osteosarcoma) [2] = experiment: as above
Outline: as §1

[3] = system: COR-L279 (Small Cell Lung Carcinoma); experiment: as above
Outline: as §1

M059J (Glioblastoma) [4] = experiment: as above
Outline: as §1

[5] = system: NCI-H929 (Plasma Cell Myeloma); experiment: as above
Outline: as §1

NCI-H2731 (Mesothelioma) [6] = experiment: as above
Outline: as §1

[7] = system: DMS-114 (Small Cell Lung Carcinoma); experiment: as above
Outline: as §1

[8] = system: T-T (Esophageal Squamous Cell Carcinoma); experiment: as above
Outline: as §1

[9] = system: MN-60 (B-Lymphoblastic Leukemia); experiment: as above
Outline: as §1

[10] = system: NCI-H526 (Small Cell Lung Carcinoma); experiment: as above
Outline: as §1

[11] = system: ST486 (Burkitt's Lymphoma); experiment: as above
Outline: as §1

[12] = system: NCCIT (Other Solid Carcinomas); experiment: as above
Outline: as §1

[13] = system: CW-2 (Colorectal Carcinoma); experiment: as above
Outline: as §1

[14] = system: SK-GT-4 (Esophageal Adenocarcinoma); experiment: as above
Outline: as §1

[15] = system: KYSE-270 (Esophageal Squamous Cell Carcinoma); experiment: as above
Outline: as §1

[16] = system: VMRC-RCZ (Kidney Carcinoma); experiment: as above
Outline: as §1

[17] = system: KU812 (Chronic Myelogenous Leukemia); experiment: as above
Outline: as §1

[18] = system: NCI-H520 (Squamous Cell Lung Carcinoma); experiment: as above
Outline: as §1

[19] = system: NCI-H3122 (Lung Adenocarcinoma); experiment: as above
Outline: as §1

[20] = system: MOG-G-CCM (Low Grade Glioma); experiment: as above
Outline: as §1

[21] = system: OCI-AML3 (Acute Myeloid Leukemia); experiment: Bliss excess, mean over the matrix (fraction); higher = more synergy
Outline: as §1

SJSA-1 (Osteosarcoma) [22] = experiment: as above
Outline: as §1

[23] = system: COR-L279 (Small Cell Lung Carcinoma); experiment: as above
Outline: as §1

M059J (Glioblastoma) [24] = experiment: as above
Outline: as §1

[25] = system: NCI-H929 (Plasma Cell Myeloma); experiment: as above
Outline: as §1

NCI-H2731 (Mesothelioma) [26] = experiment: as above
Outline: as §1

[27] = system: DMS-114 (Small Cell Lung Carcinoma); experiment: as above
Outline: as §1

[28] = system: T-T (Esophageal Squamous Cell Carcinoma); experiment: as above
Outline: as §1

[29] = system: MN-60 (B-Lymphoblastic Leukemia); experiment: as above
Outline: as §1

[30] = system: NCI-H526 (Small Cell Lung Carcinoma); experiment: as above
Outline: as §1

[31] = system: ST486 (Burkitt's Lymphoma); experiment: as above
Outline: as §1

[32] = system: NCCIT (Other Solid Carcinomas); experiment: as above
Outline: as §1

[33] = system: CW-2 (Colorectal Carcinoma); experiment: as above
Outline: as §1

[34] = system: SK-GT-4 (Esophageal Adenocarcinoma); experiment: as above
Outline: as §1

[35] = system: KYSE-270 (Esophageal Squamous Cell Carcinoma); experiment: as above
Outline: as §1

[36] = system: VMRC-RCZ (Kidney Carcinoma); experiment: as above
Outline: as §1

[37] = system: KU812 (Chronic Myelogenous Leukemia); experiment: as above
Outline: as §1

[38] = system: NCI-H520 (Squamous Cell Lung Carcinoma); experiment: as above
Outline: as §1

[39] = system: NCI-H3122 (Lung Adenocarcinoma); experiment: as above
Outline: as §1

[40] = system: MOG-G-CCM (Low Grade Glioma); experiment: as above
Outline: as §1
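Wherever Bliss excess, mean over the matrix is given: after 72 h of two-drug dosing.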

SMILES | combination Emax [1] | combination Emax (SJSA-1 (Osteosarcoma) [2]) | combination Emax [3] | combination Emax (M059J (Glioblastoma) [4]) | combination Emax [5] | combination Emax (NCI-H2731 (Mesothelioma) [6]) | combination Emax [7] | combination Emax [8] | combination Emax [9] | combination Emax [10] | combination Emax [11] | combination Emax [12] | combination Emax [13] | combination Emax [14] | combination Emax [15] | combination Emax [16] | combination Emax [17] | combination Emax [18] | combination Emax [19] | combination Emax [20] | Bliss excess [21] | Bliss excess (SJSA-1 (Osteosarcoma) [22]) | Bliss excess [23] | Bliss excess (M059J (Glioblastoma) [24]) | Bliss excess [25] | Bliss excess (NCI-H2731 (Mesothelioma) [26]) | Bliss excess [27] | Bliss excess [28] | Bliss excess [29] | Bliss excess [30] | Bliss excess [31] | Bliss excess [32] | Bliss excess [33] | Bliss excess [34] | Bliss excess [35] | Bliss excess [36] | Bliss excess [37] | Bliss excess [38] | Bliss excess [39] | Bliss excess [40]
C=CCn1c(=O)c2cnc(Nc3ccc(N4CCN(C)CC4)cc3)nc2n1-c1cccc(C(C)(C)O)n1 [AZD1775] + Nc1ccn([C@@H]2O[C@H](CO)[C@@H](O)C2(F)F)c(=O)n1 [Gemcitabine] (first compound max 1 µM, partner max 0.3 µM) | 0.95 | 0.656 | 0.987 | 0.802 | 0.906 | 0.533 | 0.643 | 0.521 | 0.653 | 0.968 | 0.985 | 0.899 | 0.559 | 0.44 | 0.983 | 0.481 | 0.836 | 0.871 | 0.803 | 0.778 | 0.0084 | -0.0822 | 0.0556 | 0.0175 | 0.0302 | 0.0305 | 0.0581 | 0.0692 | -0.0157 | 0.0642 | 0.0019 | 0.0864 | -0.0511 | 0.006 | 0.0411 | 0.0417 | -0.0107 | 0.0314 | -0.0379 | 0.0455
CN(CCO)CC[C@H](CSc1ccccc1)Nc1ccc(S(=O)(=O)NC(=O)c2ccc(N3CCC([C@@H](O)c4ccccc4-c4ccc(Cl)cc4)CC3)cc2)cc1S(=O)(=O)C(F)(F)F [AZD4320] + Nc1ccn([C@@H]2O[C@H](CO)[C@@H](O)C2(F)F)c(=O)n1 [Gemcitabine] (first compound max 1 µM, 7x7, partner max 0.3 µM) | 0.984 | 0.952 | 1 | 0.837 | 0.9 | 0.44 | 0.524 | 0.476 | 0.493 | 0.993 | 0.972 | 0.187 | 0.557 | 0.31 | 0.89 | 0.589 | 0.954 | 0.894 | 0.846 | 0.597 | 0.0034 | 0.0439 | 0.0843 | -0.0021 | -0.0176 | 0.0222 | 0.0444 | 0.0546 | -0.0618 | 0.0952 | -0.0194 | -0.0058 | -0.058 | -0.0288 | -0.0293 | 0.0103 | -0.0788 | -0.0178 | -0.0298 | -0.0629
Cc1c2c(nn1C)CSCc1cc(n(C)n1)CSc1cc(c3ccccc3c1)OCCCc1c(C(=O)O)n(C)c3c-2c(Cl)ccc13 [AZD5991] + Nc1ccn([C@@H]2O[C@H](CO)[C@@H](O)C2(F)F)c(=O)n1 [Gemcitabine] (first compound max 1 µM, 7x7, partner max 0.3 µM) | 1 | 0.725 | 0.975 | 0.681 | 1 | 0.358 | 0.908 | 0.929 | 0.518 | 0.914 | 0.904 | 0.725 | 0.613 | 0.31 | 0.965 | 0.392 | 0.842 | 0.811 | 0.922 | 0.523 | 0.0245 | -0.0319 | -0.012 | -0.0325 | 0.0087 | -0.0359 | 0.07 | 0.058 | -0.0611 | 0.0249 | 0.0089 | -0.0617 | -0.0677 | -0.042 | -0.0129 | -0.001 | -0.0709 | -0.0389 | 0.0092 | -0.0059
N#Cc1cnc(Nc2cc(NC[C@H]3CNCCO3)c(C(F)(F)F)cn2)cn1 [SRA737] + Nc1ccn([C@@H]2O[C@H](CO)[C@@H](O)C2(F)F)c(=O)n1 [Gemcitabine] (first compound max 10 µM, 7x7, partner max 0.3 µM) | 0.93 | 0.681 | 0.986 | 0.794 | 0.922 | 0.515 | 0.715 | 0.737 | 0.745 | 0.942 | 0.968 | 0.816 | 0.623 | 0.491 | 0.991 | 0.518 | 0.813 | 0.892 | 0.826 | 0.857 | -0.0422 | -0.0857 | – | 0.0426 | 0.0643 | 0.0907 | 0.087 | 0.144 | -0.0116 | 0.0912 | -0.006 | 0.0492 | 0.0386 | 0.0313 | 0.0675 | 0.0299 | 0.0421 | 0.0706 | 0.0479 | 0.0991
